SMILES strings stand for the structures. Bounds are passed on as bounds.

The experiment is described as follows: Inhibition of recombinant perforin mediated lysis of human Jurkat cells pre-incubated for 30 mins with perforin followed by incubation with Jurkat cells at 37 degC for 4 hrs in presence of 0.1% BSA by [51Cr] release assay.
Take `CN(C)CCNC(=O)c1ccc(-c2c(C#N)c(N)n3c(nc4ccccc43)c2C#N)cc1`: the IC50 is above 20 µM.

Take `CC(O)CNC(=O)c1ccc(-c2c(C#N)c(N)n3c(nc4ccccc43)c2C#N)cc1` (configuration not stated): the IC50 is 5.55 µM.

For the molecule `CCNC(=O)COc1ccc(-c2c(C#N)c(N)n3c(nc4ccccc43)c2C#N)cc1`, the IC50 was found to be 7.44 µM.

For the molecule `N#Cc1c(-c2ccc(OCC(=O)NCCc3ccncc3)cc2)c(C#N)c2nc3ccccc3n2c1N`, the IC50 worked out at 10 µM.

With `CCCNC(=O)COc1ccc(-c2c(C#N)c(N)n3c(nc4ccccc43)c2C#N)cc1`, the IC50 was 13.9 µM.

As for `N#Cc1c(-c2ccc(C(N)=O)cc2)c(C#N)c2nc3ccccc3n2c1N`, the IC50 amounted to 3 µM.

Take `N#Cc1c(-c2ccc(C(=O)NCCN3CCCCC3)cc2)c(C#N)c2nc3ccccc3n2c1N`: the IC50 is above 20 µM.

As for `Cc1cc2nc3c(C#N)c(-c4ccc(OCC(N)=O)cc4)c(C#N)c(N)n3c2cc1C`, the IC50 was determined as 3.53 µM.

Take `CN(C)C(=O)COc1ccc(-c2c(C#N)c(N)n3c(nc4ccccc43)c2C#N)cc1`: the concentration for half-maximal inhibition (IC50) was determined as 6.89 µM.

Turning to `Cc1cccc2[nH]c(C(C#N)=Cc3ccc(OCC(N)=O)cc3)nc12`, the IC50 was above 20 µM.

As for `Cc1cccc2c1nc1c(C#N)c(-c3ccc(OCC(N)=O)cc3)c(C#N)c(N)n12`, the half-inhibitory concentration (IC50) was determined as 6.87 µM.

Take `Cc1cc2nc(C(C#N)=Cc3ccc(OCC(N)=O)cc3)[nH]c2cc1C`: the IC50 amounted to 5.14 µM.

For `N#Cc1c(-c2ccc(OCC(=O)NCCO)cc2)c(C#N)c2nc3ccccc3n2c1N`, the IC50 is 8.25 µM.

With `N#Cc1c(-c2ccc(OCCO)cc2)c(C#N)c2nc3ccccc3n2c1N`, the IC50 was 2.87 µM.

For `N#Cc1c(-c2ccc(OCC(N)=O)cc2)c(C#N)c2nc3c(Cl)cccc3n2c1N`, the IC50 amounted to 5.67 µM.

As to `COc1cccc2c1nc1c(C#N)c(-c3ccc(OCC(N)=O)cc3)c(C#N)c(N)n12`, the IC50 came out at 7.49 µM.

With `N#Cc1c(-c2ccc(OCC(=O)NCCCO)cc2)c(C#N)c2nc3ccccc3n2c1N`, the IC50 is above 20 µM.

As for `CNC(=O)COc1ccc(-c2c(C#N)c(N)n3c(nc4ccccc43)c2C#N)cc1`, the IC50 was 4.56 µM.

`COc1cccc2[nH]c(C(C#N)=Cc3ccc(OCC(N)=O)cc3)nc12`: the IC50 was above 20 µM.

On to `CN(C)C(=O)CCc1ccc(-c2c(C#N)c(N)n3c(nc4ccccc43)c2C#N)cc1`, for which the IC50 was above 20 µM.

`CNC(=O)CCc1ccc(-c2c(C#N)c(N)n3c(nc4ccccc43)c2C#N)cc1`: the IC50 is above 20 µM.

On to `N#CC(=Cc1ccc(OCC(N)=O)cc1)c1nc2cccc(Cl)c2[nH]1`, for which the IC50 was determined as 6.72 µM.

For `N#Cc1c(-c2ccc(C(=O)NCC(O)CO)cc2)c(C#N)c2nc3ccccc3n2c1N` (configuration not stated), the IC50 came out at 3.24 µM.

With `Cc1ccc2c(nc3c(C#N)c(-c4ccc(OCC(N)=O)cc4)c(C#N)c(N)n32)c1C`, the IC50 stood at 5.21 µM.

As to `N#Cc1c(-c2ccc(OCC(N)=O)cc2)c(C#N)c2nc3ccccc3n2c1N`, the IC50 is 5.19 µM.

For the molecule `N#Cc1c(-c2ccc(C(=O)NCCCO)cc2)c(C#N)c2nc3ccccc3n2c1N`, the IC50 was 4.18 µM.

With `CC(C)NC(=O)COc1ccc(-c2c(C#N)c(N)n3c(nc4ccccc43)c2C#N)cc1`, the IC50 stood at 13.2 µM.

Take `N#Cc1c(-c2ccc(C(=O)NCCc3ccncc3)cc2)c(C#N)c2nc3ccccc3n2c1N`: the IC50 stood at 10.5 µM.

As for `N#Cc1c(-c2ccc(C(=O)NCCN3CCOCC3)cc2)c(C#N)c2nc3ccccc3n2c1N`, the IC50 came out at 10 µM.

Consider `N#Cc1c(-c2ccc(OCC(=O)NCC(O)CO)cc2)c(C#N)c2nc3ccccc3n2c1N` (configuration not stated), for which the IC50 is above 20 µM.

Take `CCNC(=O)c1ccc(-c2c(C#N)c(N)n3c(nc4ccccc43)c2C#N)cc1`: the IC50 was determined as 3.16 µM.

Regarding `CC(O)CNC(=O)COc1ccc(-c2c(C#N)c(N)n3c(nc4ccccc43)c2C#N)cc1` (configuration not stated), the IC50 is above 20 µM.

With `CNC(=O)c1ccc(-c2c(C#N)c(N)n3c(nc4ccccc43)c2C#N)cc1`, the IC50 came to 1.04 µM.

For `N#Cc1c(-c2ccc(C(=O)NCCO)cc2)c(C#N)c2nc3ccccc3n2c1N`, the IC50 was 3.08 µM.

Turning to `N#CC(=Cc1ccc(OCC(N)=O)cc1)c1nc2ccccc2[nH]1`, the IC50 was above 20 µM.

As to `Cc1ccc2nc(C(C#N)=Cc3ccc(OCC(N)=O)cc3)[nH]c2c1C`, the IC50 was above 20 µM.

On to `CN(C)C(=O)c1ccc(-c2c(C#N)c(N)n3c(nc4ccccc43)c2C#N)cc1`, for which the IC50 is above 20 µM.

As usually defined, the IC50 is the concentration that gives 50% inhibition.

(Values after BindingDB's records for doi:10.1016/j.bmc.2011.05.013 (University of Auckland, 2011).)
